pIC50: −log10 of the molar value. Where a name gives a salt, the structure may show the parent alone.

For assay [1], the target named is T1, HCV polymerase (NS5B) type 1a (Hepatitis C virus genotype 1a, UniProt P26664).
T1 construct: made in house; host or cells: Escherichia coli (by the 'similar method' of the 1b enzyme)
The assay is described as follows: Assay of enzyme (HCV polymerase) inhibitory activity, type 1a enzyme. Format: biochemical, HCV type 1a (cloned from the blood of patients). In short, it runs like this: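 NS5B Δ47 C-term His6 (type 1a, 1.5 μg/ml); substrate RNA 5 μg/ml; ATP/GTP/CTP 50 μM, UTP 2 μM + [5,6-3H]UTP; Tris pH 7.5, MgCl2 5 mM; 25° C, 60 min. TCA/pyrophosphate stop, GF/B filter, scintillation. IC50 vs no-compound control.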

Assay [2] has as its target T2, HCV polymerase (NS5B) type 1b (Hepatitis C virus genotype 1b, UniProt P26663).
T2 construct: a region encoding NS5B (J Virol 1991 March, 65(3), 1105-13, 544 amino acids after deletion of 47 amino acids on the C-terminal); 6xHis (C); made in house; host or cells: Escherichia coli
Nature of the assay: Assay of enzyme (HCV polymerase) inhibitory activity, type 1b enzyme. The assay is classed as biochemical, HCV BK strain (type 1b). The gist of the method: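 Rxn: NS5B 1b (BK, ΔC47, His6) 0.5 μg/ml; substrate RNA 5 μg/ml; ATP/GTP/CTP 50 μM, UTP 2 μM + [5,6-3H]UTP; 20 mM Tris pH 7.5, 5 mM MgCl2, 50 mM NaCl, 1 mM EDTA/DTT. 25 °C, 60 min. Stop with TCA/pyrophosphate, filter, scintillation count; IC50 vs. untreated.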

Setting [3] is: HCV polymerase inhibitory activity IC50, 1a, type 1a enzyme.
Where [4] appears, read: HCV polymerase inhibitory activity IC50, 1b, type 1b enzyme.
The mark [5] stands for this setting: HCV polymerase inhibitory activity (IC50), 1a, type 1a enzyme 1.5 μg/ml, 25° C., 60 min.
The mark [6] stands for this setting: HCV polymerase inhibitory activity (IC50), 1b, type 1b enzyme 0.5 μg/ml, 25° C., 60 min.

What is called pIC50 is the negative decadic logarithm of the IC50, by convention in mol/L. With `O=C(NCc1ccc(OC(F)F)cc1)[C@H]1CN(c2nc3nc(C(F)(F)F)ncc3s2)CCN1S(=O)(=O)c1ccc(OC(F)F)cc1` [Example 1005, (R)-1-(4-difluoromethoxy-benzenesulfonyl)-4-(5-trifluoromethyl-thiazolo[4,5-d]pyrimidin-2-yl)-piperazine-2-carboxylic acid 4-difluoromethoxy-benzylamide], the pIC50 in assay [1] (setting [3]) and in assay [2] (setting [4]) was above 7.00 in each case.
Consider `CCC(F)(F)c1ccc(CNC(=O)[C@H]2CN(c3cnc(C(=O)O)cn3)CCN2S(=O)(=O)c2ccc(OC(F)(F)F)cc2)cc1` [Example 559, (R)-3-[4-(1,1-difluoro-propyl)-benzylcarbamoyl]-4-(4-trifluoromethoxy-benzenesulfonyl)-3,4,5,6-tetrahydro-2H-[1,2′]bipyrazinyl-5′-carboxylic acid], for which the pIC50 in assay [1] (setting [5]) and in assay [2] (setting [6]) was above 7.00 each time.
As to `O=C(NCc1ccc(OC(F)F)cc1)[C@H]1CN(c2nc3nc(Cl)ncc3s2)CCN1S(=O)(=O)c1ccc(OC(F)F)cc1` [Example 955, (R)-4-(5-chloro-thiazolo[4,5-d]pyrimidin-2-yl)-1-(4-difluoromethoxy-benzenesulfonyl)-piperazine-2-carboxylic acid 4-difluoromethoxy-benzylamide], the pIC50 in assay [1] (setting [3]) and in assay [2] (setting [4]) was above 7.00 in each case.
Consider `CN(C)c1ccc(CNC(=O)C2CN(C(=O)CNCc3ccccc3)CCN2S(=O)(=O)c2ccc(I)cc2)cc1` (stereo not drawn) [Example 105, 4-(2-benzylamino-acetyl)-1-(4-iodo-benzenesulfonyl)-piperazine-2-carboxylic acid 4-dimethylamino-benzylamide], for which the pIC50 in assay [1] (setting [5]) and in assay [2] (setting [6]) was below 6.00 in each case.
For `Cc1ncc2ncc(N3CCN(S(=O)(=O)c4ccc(OC(F)(F)F)cc4)[C@@H](C(=O)NCc4ccc(OC(F)(F)F)cc4)C3)nc2n1` [Example 767, (R)-4-(2-methyl-pteridin-7-yl)-1-(4-trifluoromethoxy-benzenesulfonyl)-piperazine-2-carboxylic acid 4-trifluoromethoxy-benzylamide], the pIC50 in assay [1] (setting [3]) and in assay [2] (setting [4]) was above 7.00 in each case.
Regarding `O=C(NCc1ccc(C(F)(F)F)cc1)[C@H]1CN(c2cnc3cncnc3n2)CCN1S(=O)(=O)c1ccc(OC(F)(F)F)cc1` [Example 660, (R)-4-pteridin-7-yl-1-(4-trifluoromethoxy-benzenesulfonyl)-piperazine-2-carboxylic acid 4-trifluoromethyl-benzylamide], the negative-log IC50 (pIC50) in assay [1] (setting [5]) and in assay [2] (setting [6]) was above 7.00 throughout.
With `CCC(F)(F)c1ccc(CNC(=O)[C@H]2CN(c3nc4ccccc4[nH]3)CCN2S(=O)(=O)c2ccc(OC(F)(F)F)cc2)cc1` [Example 758, (R)-4-(1H-benzimidazol-2-yl)-1-(4-trifluoromethoxy-benzenesulfonyl)-piperazine-2-carboxylic acid 4-(1,1-difluoro-propyl)-benzylamide], the negative-log IC50 (pIC50) in assay [1] (setting [3]) and in assay [2] (setting [4]) was above 7.00 in each case.
In the case of `Cc1nc(N2CCN(S(=O)(=O)c3ccc(OC(F)(F)F)cc3)[C@@H](C(=O)NCc3ccc(C(C)C)cc3)C2)sc1C(=O)O` [Example 322, 2-[(R)-3-(4-isopropyl-benzylcarbamoyl)-4-(4-trifluoromethoxy-benzenesulfonyl)-piperazin-1-yl]-4-methyl-thiazole-5-carboxylic acid], the pIC50 in assay [1] (setting [5]) and in assay [2] (setting [6]) was above 7.00 throughout.
Regarding `CCc1ccc(S(=O)(=O)N2CCN(c3cnc(C(=O)O)cn3)C[C@@H]2C(=O)NCc2ccc(C(F)(F)CC)cc2)cc1` [Example 564, (R)-3-[4-(1,1-difluoro-propyl)-benzylcarbamoyl]-4-(4-ethyl-benzenesulfonyl)-3,4,5,6-tetrahydro-2H-[1,2′]bipyrazinyl-5′-carboxylic acid], the pIC50 in assay [1] (setting [5]) and in assay [2] (setting [6]) was above 7.00 throughout.
As for `Cc1nc(N2CCN(S(=O)(=O)c3ccc(OC(F)(F)F)cc3)[C@@H](C(=O)NCc3ccc(C(C)(C)C)cc3)C2)sc1C#N` [Example 577, (R)-4-(5-cyano-4-methyl-thiazol-2-yl)-1-(4-trifluoromethoxy-benzenesulfonyl)-piperazine-2-carboxylic acid 4-tert-butyl-benzylamide], the pIC50 in assay [1] (setting [5]) and in assay [2] (setting [6]) was above 7.00 throughout.
Take `O=C(NCc1ccc(OC(F)F)c(F)c1)[C@H]1CN(c2nc3nc(C(F)(F)F)ncc3s2)CCN1S(=O)(=O)c1ccc(OC(F)(F)F)cc1` [Example 1061, (R)-1-(4-trifluoromethoxy-benzenesulfonyl)-4-(5-trifluoromethyl-thiazolo[4,5-d]pyrimidin-2-yl)-piperazine-2-carboxylic acid 4-difluoromethoxy-3-fluoro-benzylamide]: the pIC50 in assay [1] (setting [3]) and in assay [2] (setting [4]) was above 7.00 each time.
`CCCc1ccc(CNC(=O)[C@H]2CN(c3cnc(C(=O)OC)c(NC(C)=O)n3)CCN2S(=O)(=O)c2ccc(OC(F)(F)F)cc2)cc1` [Example 515, (R)-6′-acetylamino-3-(4-propyl-benzylcarbamoyl)-4-(4-trifluoromethoxy-benzenesulfonyl)-3,4,5,6-tetrahydro-2H-[1,2′]bipyrazinyl-5′-carboxylic acid methyl ester]: the pIC50 in assay [1] (setting [5]) and in assay [2] (setting [6]) was above 7.00 each time.
`CCC(F)(F)c1ccc(CNC(=O)[C@H]2CN(C(=O)Nn3cnnc3)CCN2S(=O)(=O)c2ccc(OC(F)(F)F)cc2)cc1` [Example 539, (R)-4-(4-trifluoromethoxy-benzenesulfonyl)-piperazine-1,3-dicarboxylic acid 3-[4-(1,1-difluoro-propyl)-benzylamide] 1-[1,2,4]triazol-4-ylamide]: the pIC50 in assay [1] (setting [5]) and in assay [2] (setting [6]) was 6.00 to 7.00 throughout.
As for `CC(=O)N1CCN(S(=O)(=O)c2ccc(OC(F)(F)F)cc2)[C@@H](C(=O)NCc2ccc(-c3cccs3)cc2)C1` [Example 623, (R)-4-acetyl-1-(4-trifluoromethoxy-benzenesulfonyl)-piperazine-2-carboxylic acid 4-thiophen-2-yl-benzylamide], the results for the pIC50 in assay [1] (setting [5]) and in assay [2] (setting [6]) were above 7.00 and 6.00 to 7.00, respectively.
`CCCc1ccc(CNC(=O)[C@H]2CN(C(=O)Nc3nncs3)CCN2S(=O)(=O)c2ccc(OC(F)(F)F)cc2)cc1` [Example 437, (R)-4-(4-trifluoromethoxy-benzenesulfonyl)-piperazine-1,3-dicarboxylic acid 3-(4-propyl-benzylamide) 1-[1,3,4]thiadiazol-2-ylamide]: the pIC50 in assay [1] (setting [5]) and in assay [2] (setting [6]) was above 7.00 in each case.
Consider `CCC(F)(F)c1ccc(CNC(=O)[C@H]2CN(c3cc(N)ncn3)CCN2S(=O)(=O)c2ccc(OC(F)(F)F)cc2)cc1` [Example 605, (R)-4-(6-amino-pyrimidin-4-yl)-1-(4-trifluoromethoxy-benzenesulfonyl)-piperazine-2-carboxylic acid 4-(1,1-difluoro-propyl)-benzylamide], for which the pIC50 in assay [1] (setting [5]) and in assay [2] (setting [6]) was above 7.00 throughout.
For the compound `CCC(F)(F)c1ccc(CNC(=O)[C@H]2CN(c3cnc(C(N)=O)cn3)CCN2S(=O)(=O)c2ccc(OC(F)(F)F)cc2)cc1` [Example 586, (R)-4-(4-trifluoromethoxy-benzenesulfonyl)-3,4,5,6-tetrahydro-2H-[1,2′]bipyrazinyl-3,5′-dicarboxylic acid 5′-amide 3-[4-(1,1-difluoro-propyl)-benzylamide]], the pIC50 in assay [1] (setting [5]) and in assay [2] (setting [6]) was above 7.00 throughout.
On to `CN(C)c1ccc(CNC(=O)[C@H]2CN(c3cnc4cncnc4n3)CCN2S(=O)(=O)c2ccc(OC(F)(F)F)cc2)cn1` [Example 630, (R)-4-pteridin-7-yl-1-(4-trifluoromethoxy-benzenesulfonyl)-piperazine-2-carboxylic acid (6-dimethylamino-pyridin-3-ylmethyl)-amide], for which the pIC50 in assay [1] (setting [5]) and in assay [2] (setting [6]) was above 7.00 in each case.
For the compound `O=C(NCc1ccc(OC(F)(F)F)cc1)[C@H]1CN(c2nc3cnncc3s2)CCN1S(=O)(=O)c1ccc(OC(F)(F)F)cc1` [Example 879, (R)-4-thiazolo[4,5-d]pyridazin-2-yl-1-(4-trifluoromethoxy-benzenesulfonyl)-piperazine-2-carboxylic acid 4-trifluoromethoxy-benzylamide], the pIC50 in assay [1] (setting [3]) and in assay [2] (setting [4]) was above 7.00 throughout.
Consider `CN(C)c1ccc(CNC(=O)[C@H]2CNCCN2S(=O)(=O)c2ccc(C(F)(F)F)cc2)cc1` [Example 209, (R)-1-(4-trifluoromethyl-benzenesulfonyl)-piperazine-2-carboxylic acid 4-dimethylamino-benzylamide dihydrochloride], for which the pIC50 in assay [1] (setting [5]) and in assay [2] (setting [6]) was below 6.00 each time.
As for `CCC(F)(F)c1ccc(CNC(=O)[C@H]2CN(C(=O)Nc3nc(C)ns3)CCN2S(=O)(=O)c2ccc(OC(F)(F)F)cc2)cc1` [Example 527, (R)-4-(4-trifluoromethoxy-benzenesulfonyl)-piperazine-1,3-dicarboxylic acid 3-[4-(1,1-difluoro-propyl)-benzylamide] 1-[(3-methyl-[1,2,4]thiadiazol-5-yl)-amide]], the pIC50 in assay [1] (setting [5]) and in assay [2] (setting [6]) was 6.00 to 7.00 in each case.

These data come from patent US8017612B2, “Piperazine compound and use thereof as a HCV polymerase inhibitor” (priority 2006, dated 2011).
